In patent publication US20260256792A1, “TREATMENT OF CHRONIC SPONTANEOUS URTICARIA BY ADMINISTERING (R)-2-[3-[4-AMINO-3-(2-FLUORO-4-PHENOXY-PHENYL)PYRAZOLO[3,4-D]PYRIMIDIN-1-YL]PIPERIDINE-1-CARBONYL]-4-METHYL-4-[4-(OXETAN-3-YL)PIPERAZIN-1-YL]PENT-2-ENENITRILE” (priority 2023, published 2026):

System: moderate-to-severe chronic spontaneous urticaria (CSU)
Assay: Phase 2 CSU study: itch severity score over 7 days (ISS7)
Format: in vivo, human
Details: for Non-responder n (%) (ISS7 reduction of 5 points or more) / OR for rilzabrutinib vs. placebo (ISS7 reduction of 5 points or more) / RRD (%) for rilzabrutinib vs. placebo (ISS7 reduction of 5 points or more) / Responder n (%) (ISS7 reduction of 5 points or more) / Imputed non-responder n (%) (ISS7 reduction of 5 points or more): ITT population
Description: The study comprises a 12 week, randomized, double-blind, placebo-controlled, multi-center, dose-ranging efficacy and safety phase, followed by a 40 week open label extension (OLE) phase (see FIG. 1). The study consists of three phases and an optional OLE phase. […] Clinically, CSU is characterized by the spontaneous and recurrent appearance of pruritic hives. The proposed primary endpoints were the UAS7 at Week 12 in EU and EU reference countries and the ISS7 in the US. Regardless of where a participant was from, all assessments were the same. The UAS7 score is a composite score containing both the HSS7 and the ISS7. This allowed a global assessment of the two key components of urticaria: hives and itch. […] The UAS is a validated PRO measure. […] The daily UAS scores range from 0 to 6 point/day. […] Patients were to complete the UAS using the e-diary. […] The following secondary endpoints were to be analyzed using the same approach as for the primary endpoint: • Change from baseline in UAS7 at Week 4 • Change from baseline in UAS7 at Week 12 (for US and US reference countries) • Change from baseline in ISS7 at Week 12 (except US and US reference countries) • Change from baseline in HSS7 at Week 12

CC(C)(C=C(C#N)C(=O)N1CCC[C@@H](n2nc(-c3ccc(Oc4ccccc4)cc3F)c3c(N)ncnc32)C1)N1CCN(C2COC2)CC1 [rilzabrutinib, (R)-2-[3-[4-amino-3-(2-fluoro-4-phenoxy-phenyl)pyrazolo[3,4-d]pyrimidin-1-yl]piperidine-1-carbonyl]-4-methyl-4-[4-(oxetan-3-yl)piperazin-1-yl]pent-2-enenitrile]
Non-responder n (%) (ISS7 reduction of 5 points or more) (400 mg QPM, Week 4): 20 (52.6) n (%)
OR for rilzabrutinib vs. placebo (ISS7 reduction of 5 points or more) (400 mg QPM, Week 4): 1.076
RRD (%) for rilzabrutinib vs. placebo (ISS7 reduction of 5 points or more) (400 mg QPM, Week 4): 1.7%
Responder n (%) (ISS7 reduction of 5 points or more) (400 mg QPM, Week 4): 18 (47.4) n (%)
Non-responder n (%) (ISS7 reduction of 5 points or more) (400 mg QPM, Week 6): 20 (52.6) n (%)
OR for rilzabrutinib vs. placebo (ISS7 reduction of 5 points or more) (400 mg QPM, Week 6): 1.066
RRD (%) for rilzabrutinib vs. placebo (ISS7 reduction of 5 points or more) (400 mg QPM, Week 6): 1.5%
Responder n (%) (ISS7 reduction of 5 points or more) (400 mg QPM, Week 6): 18 (47.4) n (%)
Imputed non-responder n (%) (ISS7 reduction of 5 points or more) (400 mg QPM, Week 7): 6 (15.8) n (%)
Non-responder n (%) (ISS7 reduction of 5 points or more) (400 mg QPM, Week 7): 19 (50.0) n (%)
OR for rilzabrutinib vs. placebo (ISS7 reduction of 5 points or more) (400 mg QPM, Week 7): 1.138
RRD (%) for rilzabrutinib vs. placebo (ISS7 reduction of 5 points or more) (400 mg QPM, Week 7): 3.1%
Responder n (%) (ISS7 reduction of 5 points or more) (400 mg QPM, Week 7): 19 (50.0) n (%)
Imputed non-responder n (%) (ISS7 reduction of 5 points or more) (400 mg QPM, Week 8): 7 (18.4) n (%)
Non-responder n (%) (ISS7 reduction of 5 points or more) (400 mg QPM, Week 8): 20 (52.6) n (%)
OR for rilzabrutinib vs. placebo (ISS7 reduction of 5 points or more) (400 mg QPM, Week 8): 0.836
RRD (%) for rilzabrutinib vs. placebo (ISS7 reduction of 5 points or more) (400 mg QPM, Week 8): −4.5%
Responder n (%) (ISS7 reduction of 5 points or more) (400 mg QPM, Week 8): 18 (47.4) n (%)
Imputed non-responder n (%) (ISS7 reduction of 5 points or more) (400 mg QPM, Week 9): 6 (15.8) n (%)
Non-responder n (%) (ISS7 reduction of 5 points or more) (400 mg QPM, Week 9): 18 (47.4) n (%)
OR for rilzabrutinib vs. placebo (ISS7 reduction of 5 points or more) (400 mg QPM, Week 9): 1.294
RRD (%) for rilzabrutinib vs. placebo (ISS7 reduction of 5 points or more) (400 mg QPM, Week 9): 5.8%
Responder n (%) (ISS7 reduction of 5 points or more) (400 mg QPM, Week 9): 20 (52.6) n (%)
Imputed non-responder n (%) (ISS7 reduction of 5 points or more) (400 mg QPM, Week 10): 6 (15.8) n (%)
Non-responder n (%) (ISS7 reduction of 5 points or more) (400 mg QPM, Week 10): 14 (36.8) n (%)
OR for rilzabrutinib vs. placebo (ISS7 reduction of 5 points or more) (400 mg QPM, Week 10): 1.593
Responder n (%) (ISS7 reduction of 5 points or more) (400 mg QPM, Week 10): 24 (63.2) n (%)
Imputed non-responder n (%) (ISS7 reduction of 5 points or more) (400 mg QPM, Week 11): 7 (18.4) n (%)
Non-responder n (%) (ISS7 reduction of 5 points or more) (400 mg QPM, Week 11): 17 (44.7) n (%)
OR for rilzabrutinib vs. placebo (ISS7 reduction of 5 points or more) (400 mg QPM, Week 11): 0.938
RRD (%) for rilzabrutinib vs. placebo (ISS7 reduction of 5 points or more) (400 mg QPM, Week 11): −1.5%
Responder n (%) (ISS7 reduction of 5 points or more) (400 mg QPM, Week 11): 21 (55.3) n (%)
Imputed non-responder n (%) (ISS7 reduction of 5 points or more) (400 mg QPM, Week 12): 10 (26.3) n (%)
Non-responder n (%) (ISS7 reduction of 5 points or more) (400 mg QPM, Week 12): 21 (55.3) n (%)
OR for rilzabrutinib vs. placebo (ISS7 reduction of 5 points or more) (400 mg QPM, Week 12): 0.905
RRD (%) for rilzabrutinib vs. placebo (ISS7 reduction of 5 points or more) (400 mg QPM, Week 12): −2.6%
Responder n (%) (ISS7 reduction of 5 points or more) (400 mg QPM, Week 12): 17 (44.7) n (%)
Imputed non-responder n (%) (ISS7 reduction of 5 points or more) (400 mg TID, Week 2): 0 n (%)
Non-responder n (%) (ISS7 reduction of 5 points or more) (400 mg TID, Week 2): 13 (31.7) n (%)
OR for rilzabrutinib vs. placebo (ISS7 reduction of 5 points or more) (400 mg TID, Week 2): 4.772
RRD (%) for rilzabrutinib vs. placebo (ISS7 reduction of 5 points or more) (400 mg TID, Week 2): 35.9%
Responder n (%) (ISS7 reduction of 5 points or more) (400 mg TID, Week 2): 28 (68.3) n (%)
Imputed non-responder n (%) (ISS7 reduction of 5 points or more) (400 mg TID, Week 3): 0 n (%)
Non-responder n (%) (ISS7 reduction of 5 points or more) (400 mg TID, Week 3): 12 (29.3) n (%)
OR for rilzabrutinib vs. placebo (ISS7 reduction of 5 points or more) (400 mg TID, Week 3): 4.110
RRD (%) for rilzabrutinib vs. placebo (ISS7 reduction of 5 points or more) (400 mg TID, Week 3): 37.3%
Responder n (%) (ISS7 reduction of 5 points or more) (400 mg TID, Week 3): 29 (70.7) n (%)
Imputed non-responder n (%) (ISS7 reduction of 5 points or more) (400 mg TID, Week 4): 3 (7.3) n (%)
Non-responder n (%) (ISS7 reduction of 5 points or more) (400 mg TID, Week 4): 13 (31.7) n (%)
OR for rilzabrutinib vs. placebo (ISS7 reduction of 5 points or more) (400 mg TID, Week 4): 2.155
RRD (%) for rilzabrutinib vs. placebo (ISS7 reduction of 5 points or more) (400 mg TID, Week 4): 18.8%
Responder n (%) (ISS7 reduction of 5 points or more) (400 mg TID, Week 4): 28 (68.3) n (%)
Imputed non-responder n (%) (ISS7 reduction of 5 points or more) (400 mg TID, Week 5): 3 (7.3) n (%)
Non-responder n (%) (ISS7 reduction of 5 points or more) (400 mg TID, Week 5): 11 (26.8) n (%)
OR for rilzabrutinib vs. placebo (ISS7 reduction of 5 points or more) (400 mg TID, Week 5): 2.433
RRD (%) for rilzabrutinib vs. placebo (ISS7 reduction of 5 points or more) (400 mg TID, Week 5): 20.9%
Responder n (%) (ISS7 reduction of 5 points or more) (400 mg TID, Week 5): 30 (73.2) n (%)
Imputed non-responder n (%) (ISS7 reduction of 5 points or more) (400 mg TID, Week 6): 5 (12.2) n (%)
Non-responder n (%) (ISS7 reduction of 5 points or more) (400 mg TID, Week 6): 16 (39.0) n (%)
OR for rilzabrutinib vs. placebo (ISS7 reduction of 5 points or more) (400 mg TID, Week 6): 1.574
Responder n (%) (ISS7 reduction of 5 points or more) (400 mg TID, Week 6): 25 (61.0) n (%)
Imputed non-responder n (%) (ISS7 reduction of 5 points or more) (400 mg TID, Week 7): 6 (14.6) n (%)
Non-responder n (%) (ISS7 reduction of 5 points or more) (400 mg TID, Week 7): 14 (34.1) n (%)
OR for rilzabrutinib vs. placebo (ISS7 reduction of 5 points or more) (400 mg TID, Week 7): 2.038
RRD (%) for rilzabrutinib vs. placebo (ISS7 reduction of 5 points or more) (400 mg TID, Week 7): 16.8%
Responder n (%) (ISS7 reduction of 5 points or more) (400 mg TID, Week 7): 27 (65.9) n (%)
Imputed non-responder n (%) (ISS7 reduction of 5 points or more) (400 mg TID, Week 8): 8 (19.5) n (%)
Non-responder n (%) (ISS7 reduction of 5 points or more) (400 mg TID, Week 8): 13 (31.7) n (%)
OR for rilzabrutinib vs. placebo (ISS7 reduction of 5 points or more) (400 mg TID, Week 8): 1.839
RRD (%) for rilzabrutinib vs. placebo (ISS7 reduction of 5 points or more) (400 mg TID, Week 8): 14.6%
Responder n (%) (ISS7 reduction of 5 points or more) (400 mg TID, Week 8): 28 (68.3) n (%)
Imputed non-responder n (%) (ISS7 reduction of 5 points or more) (400 mg TID, Week 9): 7 (17.1) n (%)
Non-responder n (%) (ISS7 reduction of 5 points or more) (400 mg TID, Week 9): 12 (29.3) n (%)
OR for rilzabrutinib vs. placebo (ISS7 reduction of 5 points or more) (400 mg TID, Week 9): 2.730
RRD (%) for rilzabrutinib vs. placebo (ISS7 reduction of 5 points or more) (400 mg TID, Week 9): 22.5%
Responder n (%) (ISS7 reduction of 5 points or more) (400 mg TID, Week 9): 29 (70.7) n (%)
Imputed non-responder n (%) (ISS7 reduction of 5 points or more) (400 mg TID, Week 10): 7 (17.1) n (%)
Non-responder n (%) (ISS7 reduction of 5 points or more) (400 mg TID, Week 10): 14 (34.1) n (%)
OR for rilzabrutinib vs. placebo (ISS7 reduction of 5 points or more) (400 mg TID, Week 10): 1.669
Responder n (%) (ISS7 reduction of 5 points or more) (400 mg TID, Week 10): 27 (65.9) n (%)
Imputed non-responder n (%) (ISS7 reduction of 5 points or more) (400 mg TID, Week 11): 6 (14.6) n (%)
Non-responder n (%) (ISS7 reduction of 5 points or more) (400 mg TID, Week 11): 12 (29.3) n (%)
OR for rilzabrutinib vs. placebo (ISS7 reduction of 5 points or more) (400 mg TID, Week 11): 1.699
Responder n (%) (ISS7 reduction of 5 points or more) (400 mg TID, Week 11): 29 (70.7) n (%)
ISS7 % Change difference for rilzabrutinib vs. placebo LS Mean (95% CI) (ITT, 400 mg BID, Week 1): −23.55%
ISS7 % Change from baseline LS Mean (SE) (ITT, 400 mg BID, Week 1): −34.02 (5.28) %
ISS7 Change difference for rilzabrutinib vs. placebo LS Mean (95% CI) (ITT, 400 mg BID, Week 1): −3.23
ISS7 Change from baseline LS Mean (SE) (ITT, 400 mg BID, Week 1): −5.23 (0.78)
ISS7 Post-baseline Mean (SD) (ITT, 400 mg BID, Week 1): 10.65 (5.86)
ISS7 % Change difference for rilzabrutinib vs. placebo LS Mean (95% CI) (ITT, 400 mg BID, Week 2): −16.63%
ISS7 % Change from baseline LS Mean (SE) (ITT, 400 mg BID, Week 2): −36.11 (5.26) %
